For 2 compounds, IC50 and inhibition results are on record in article PMC5785997, “2-Phenylquinazolinones as dual-activity tankyrase-kinase inhibitors” (Scientific Reports, 2018).

One test deals with TNKS2 (Homo sapiens, UniProt Q9H2K2). The test is described as follows: NAD+ quantification activity assay, TNKS2. Format: biochemical. To be noted: TNKS2 IC50, NAD+ 500 nM. The method, then:
The activity assay used to measure the potency of the compounds against TNKS2 is based on the quantification of NAD^+[38]. The reactions were carried out in 96-well plate (Greiner bio-one, U-shaped) and the conditions were the same as reported earlier (Table S5)[24].
The compounds were stored in 100% DMSO at −20 °C. All the compounds were diluted in the TNKS2 assay buffer (50 mM Bis-Tris Propane, 0.5 mM TCEP, 0.01% Triton-100x). Control reactions were used to exclude the effect of compound fluorescence and quenching from the calculations. […] The pIC50 values were calculated and fitted with nonlinear regression using 4-parameters with GraphPad Prism (version 5.0 for windows).
Protein (nM) NAD+ (nM) Incubation Buffer
Kinase [ATP] Substrate Incubation Reaction buffer

For the next test, the target named is CDK9 (Homo sapiens, UniProt P50750). The test is described as follows: Kinase functional assay (mobility shift), CDK9. Format: biochemical. To be noted: read-out: CDK9 (% Inhib.); for inhibition at 1 µM: 1 µM compound, Table S3; for inhibition at 10 µM: 10 µM compound, Table S4.
In a further test the target is p38α (Homo sapiens, UniProt Q16539). The test is described as follows: Kinase functional assay (mobility shift), p38α. Format: biochemical. To be noted: read-out: p38α (% Inhib.); for inhibition at 1 µM: 1 µM compound, Table S3; for inhibition at 10 µM: 10 µM compound, Table S4.
The target of the next test is T1, human CK2α-1 (Homo sapiens, UniProt P68400).
T1 construct: purchased Promega V4,482
The test is described as follows: ADP-Glo kinase assay, CK2. Format: biochemical. To be noted: read-out: CK2 (% Inhib.); for inhibition at 1 µM: 1 µM compound, Table S3; for inhibition at 10 µM: 10 µM compound, Table S4. The method, then: The kinase functional assays were performed using a combination of kinase and 1.5 μM peptide substrate in the presence of ATP. The reaction mixture was analyzed on the Caliper LabChip 3,000 (Caliper, Hopkinton, MA) by the electrophoretic mobility shift of the fluorescent substrate and phosphorylated product. For the inhibition of human CK2α-1, the experiments were carried out with ADP-Glo kinase Assay Kit (Promega V9,101). Assays are described in detail in the Supplementary Methods and Table S6. […]
Dose-response curves were generated to determine the concentration required to inhibit 50% of kinase activity (IC50). Staurosporine (Invitrogen BP2,451) was included as a positive control of each enzymatic assay. The profiling of the kinases was done at 1 and at 10 μM of the compound.
For the inhibition of human CK2α-1, the experiments were carried out in a white 384-microplate low flange (Corning 3,572) with ADP-Glo kinase Assay Kit (Promega V9101) and CK2α-1 Kinase Enzyme System (Promega V4,482). The test compounds and standard staurosporine (Invitrogen BP2451), 25 ng/well CK2α-1 kinase and 50 µM ATP were added in a final volume of 10 µl/well using reaction buffer supplied by kit as assay buffer. The reaction mixture was incubated in gentle shaking for 60 minutes at room temperature. After the incubation 10 µl of ADP-Glo reagent was added and incubated in gentle shaking for 40 minutes at room temperature. Finally 20 µl of Kinase Detection Reagent was added and the plate was incubated on a shaker for 30 minutes at room […]
temperature. […]
For orientation: ADP-Glo turns the ADP formed in a reaction into a luminescent signal.

For the next test, the target named is ARTD2/PARP2 (Homo sapiens, UniProt Q9UGN5). The test is described as follows: ARTD profiling, ARTD2.
The target in a further test is T2, ARTD4/PARP4 (Homo sapiens, UniProt Q9UKK3).
T2 sequence (Q9UKK3 369-573 limits assumed): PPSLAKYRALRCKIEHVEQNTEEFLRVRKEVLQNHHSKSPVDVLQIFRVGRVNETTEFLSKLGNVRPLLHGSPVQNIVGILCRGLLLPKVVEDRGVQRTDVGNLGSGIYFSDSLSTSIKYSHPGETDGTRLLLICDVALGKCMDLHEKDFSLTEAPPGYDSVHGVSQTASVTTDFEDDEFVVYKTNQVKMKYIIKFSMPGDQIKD
The test is described as follows: ARTD profiling, ARTD4.

The target in a further test is ARTD8/PARP14 (Homo sapiens, UniProt Q460N5). The test is described as follows: ARTD profiling, ARTD8.
A further test addresses T3, ARTD15/PARP16 (Homo sapiens, UniProt Q8N5Y8).
T3 sequence (Q8N5Y8 1-322): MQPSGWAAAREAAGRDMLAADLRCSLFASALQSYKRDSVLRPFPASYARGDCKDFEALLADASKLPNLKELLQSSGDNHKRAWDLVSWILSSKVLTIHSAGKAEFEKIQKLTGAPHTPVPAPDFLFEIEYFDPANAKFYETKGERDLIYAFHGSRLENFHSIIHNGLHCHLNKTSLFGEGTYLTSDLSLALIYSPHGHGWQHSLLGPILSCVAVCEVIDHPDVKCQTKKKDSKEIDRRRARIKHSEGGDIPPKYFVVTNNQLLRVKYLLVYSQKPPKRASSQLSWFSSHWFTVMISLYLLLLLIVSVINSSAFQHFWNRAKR
The test is described as follows: ARTD profiling, ARTD15.

Sequence of CDK9 (P50750 whole entry, species assumed): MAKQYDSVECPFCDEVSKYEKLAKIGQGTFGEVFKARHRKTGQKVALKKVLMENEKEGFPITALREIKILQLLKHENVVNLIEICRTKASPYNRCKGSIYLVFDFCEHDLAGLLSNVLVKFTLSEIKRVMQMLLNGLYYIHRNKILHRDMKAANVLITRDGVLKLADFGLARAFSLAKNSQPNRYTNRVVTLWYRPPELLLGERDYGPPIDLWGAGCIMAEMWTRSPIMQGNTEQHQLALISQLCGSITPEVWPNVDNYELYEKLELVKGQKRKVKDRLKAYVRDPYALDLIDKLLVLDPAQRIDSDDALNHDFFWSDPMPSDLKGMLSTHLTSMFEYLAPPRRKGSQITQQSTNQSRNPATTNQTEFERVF
Sequence of CDK9 (O60563 whole entry partner, species assumed): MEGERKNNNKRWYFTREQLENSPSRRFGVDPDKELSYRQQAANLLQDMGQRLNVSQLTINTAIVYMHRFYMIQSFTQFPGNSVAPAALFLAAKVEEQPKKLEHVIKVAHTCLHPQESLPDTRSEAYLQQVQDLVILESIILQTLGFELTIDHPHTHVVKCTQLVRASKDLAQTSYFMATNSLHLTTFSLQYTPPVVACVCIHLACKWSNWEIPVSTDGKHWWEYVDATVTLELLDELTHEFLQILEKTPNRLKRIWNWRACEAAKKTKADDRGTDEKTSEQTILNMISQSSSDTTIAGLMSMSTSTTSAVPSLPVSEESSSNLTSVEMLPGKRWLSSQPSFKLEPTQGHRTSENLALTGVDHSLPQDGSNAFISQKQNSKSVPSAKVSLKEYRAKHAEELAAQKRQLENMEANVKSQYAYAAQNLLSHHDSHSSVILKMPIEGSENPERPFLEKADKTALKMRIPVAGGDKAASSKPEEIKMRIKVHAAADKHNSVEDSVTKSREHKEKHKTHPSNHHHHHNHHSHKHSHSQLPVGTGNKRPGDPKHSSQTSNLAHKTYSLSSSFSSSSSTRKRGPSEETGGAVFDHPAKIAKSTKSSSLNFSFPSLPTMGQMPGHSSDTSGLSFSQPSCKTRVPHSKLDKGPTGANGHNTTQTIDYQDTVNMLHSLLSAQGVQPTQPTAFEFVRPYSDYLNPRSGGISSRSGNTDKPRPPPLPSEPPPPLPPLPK
Sequence of p38α (Q16539 whole entry): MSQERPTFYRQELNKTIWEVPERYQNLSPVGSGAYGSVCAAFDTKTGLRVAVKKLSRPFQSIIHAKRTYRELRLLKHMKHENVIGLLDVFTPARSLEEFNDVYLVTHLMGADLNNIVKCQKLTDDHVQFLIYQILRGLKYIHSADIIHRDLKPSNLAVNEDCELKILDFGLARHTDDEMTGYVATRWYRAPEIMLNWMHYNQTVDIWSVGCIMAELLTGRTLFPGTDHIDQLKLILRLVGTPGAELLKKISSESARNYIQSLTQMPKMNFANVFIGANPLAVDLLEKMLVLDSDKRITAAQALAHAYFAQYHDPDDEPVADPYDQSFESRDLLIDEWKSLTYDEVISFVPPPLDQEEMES
T1 sequence (P68400 whole entry): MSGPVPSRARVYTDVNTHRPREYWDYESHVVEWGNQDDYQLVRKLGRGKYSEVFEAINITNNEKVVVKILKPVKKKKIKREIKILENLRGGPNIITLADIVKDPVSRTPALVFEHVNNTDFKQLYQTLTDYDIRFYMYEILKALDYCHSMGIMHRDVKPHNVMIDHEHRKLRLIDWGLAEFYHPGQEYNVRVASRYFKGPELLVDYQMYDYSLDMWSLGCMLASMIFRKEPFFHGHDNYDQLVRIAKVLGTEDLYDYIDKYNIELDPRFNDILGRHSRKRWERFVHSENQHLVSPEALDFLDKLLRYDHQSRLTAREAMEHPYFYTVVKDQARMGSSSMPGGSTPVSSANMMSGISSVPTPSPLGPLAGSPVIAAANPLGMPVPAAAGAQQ
Sequence of TNKS2 (Q9H2K2 959-1164): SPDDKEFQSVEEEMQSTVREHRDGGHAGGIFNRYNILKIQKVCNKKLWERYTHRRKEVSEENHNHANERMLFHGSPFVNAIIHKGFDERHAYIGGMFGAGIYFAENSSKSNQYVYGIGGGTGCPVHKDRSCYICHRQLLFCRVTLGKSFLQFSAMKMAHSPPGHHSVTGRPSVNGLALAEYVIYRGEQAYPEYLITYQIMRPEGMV
Sequence of ARTD2/PARP2 (Q9UGN5 whole entry): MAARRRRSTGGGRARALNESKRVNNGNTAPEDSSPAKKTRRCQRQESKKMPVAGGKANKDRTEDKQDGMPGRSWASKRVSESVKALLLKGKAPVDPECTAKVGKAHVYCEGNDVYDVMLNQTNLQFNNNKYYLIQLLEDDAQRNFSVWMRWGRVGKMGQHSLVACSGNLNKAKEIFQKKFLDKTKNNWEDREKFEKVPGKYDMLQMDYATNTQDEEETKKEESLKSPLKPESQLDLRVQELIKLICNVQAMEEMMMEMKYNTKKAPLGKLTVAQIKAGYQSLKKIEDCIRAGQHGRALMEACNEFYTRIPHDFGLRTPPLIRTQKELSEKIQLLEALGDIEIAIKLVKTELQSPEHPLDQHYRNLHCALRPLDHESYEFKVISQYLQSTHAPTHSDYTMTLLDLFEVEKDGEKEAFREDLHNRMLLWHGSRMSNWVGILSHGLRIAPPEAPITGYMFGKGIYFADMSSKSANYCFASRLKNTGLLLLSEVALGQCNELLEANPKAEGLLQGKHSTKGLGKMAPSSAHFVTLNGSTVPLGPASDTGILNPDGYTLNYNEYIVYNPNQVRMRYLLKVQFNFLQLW
Sequence of ARTD8/PARP14 (Q460N5 whole entry): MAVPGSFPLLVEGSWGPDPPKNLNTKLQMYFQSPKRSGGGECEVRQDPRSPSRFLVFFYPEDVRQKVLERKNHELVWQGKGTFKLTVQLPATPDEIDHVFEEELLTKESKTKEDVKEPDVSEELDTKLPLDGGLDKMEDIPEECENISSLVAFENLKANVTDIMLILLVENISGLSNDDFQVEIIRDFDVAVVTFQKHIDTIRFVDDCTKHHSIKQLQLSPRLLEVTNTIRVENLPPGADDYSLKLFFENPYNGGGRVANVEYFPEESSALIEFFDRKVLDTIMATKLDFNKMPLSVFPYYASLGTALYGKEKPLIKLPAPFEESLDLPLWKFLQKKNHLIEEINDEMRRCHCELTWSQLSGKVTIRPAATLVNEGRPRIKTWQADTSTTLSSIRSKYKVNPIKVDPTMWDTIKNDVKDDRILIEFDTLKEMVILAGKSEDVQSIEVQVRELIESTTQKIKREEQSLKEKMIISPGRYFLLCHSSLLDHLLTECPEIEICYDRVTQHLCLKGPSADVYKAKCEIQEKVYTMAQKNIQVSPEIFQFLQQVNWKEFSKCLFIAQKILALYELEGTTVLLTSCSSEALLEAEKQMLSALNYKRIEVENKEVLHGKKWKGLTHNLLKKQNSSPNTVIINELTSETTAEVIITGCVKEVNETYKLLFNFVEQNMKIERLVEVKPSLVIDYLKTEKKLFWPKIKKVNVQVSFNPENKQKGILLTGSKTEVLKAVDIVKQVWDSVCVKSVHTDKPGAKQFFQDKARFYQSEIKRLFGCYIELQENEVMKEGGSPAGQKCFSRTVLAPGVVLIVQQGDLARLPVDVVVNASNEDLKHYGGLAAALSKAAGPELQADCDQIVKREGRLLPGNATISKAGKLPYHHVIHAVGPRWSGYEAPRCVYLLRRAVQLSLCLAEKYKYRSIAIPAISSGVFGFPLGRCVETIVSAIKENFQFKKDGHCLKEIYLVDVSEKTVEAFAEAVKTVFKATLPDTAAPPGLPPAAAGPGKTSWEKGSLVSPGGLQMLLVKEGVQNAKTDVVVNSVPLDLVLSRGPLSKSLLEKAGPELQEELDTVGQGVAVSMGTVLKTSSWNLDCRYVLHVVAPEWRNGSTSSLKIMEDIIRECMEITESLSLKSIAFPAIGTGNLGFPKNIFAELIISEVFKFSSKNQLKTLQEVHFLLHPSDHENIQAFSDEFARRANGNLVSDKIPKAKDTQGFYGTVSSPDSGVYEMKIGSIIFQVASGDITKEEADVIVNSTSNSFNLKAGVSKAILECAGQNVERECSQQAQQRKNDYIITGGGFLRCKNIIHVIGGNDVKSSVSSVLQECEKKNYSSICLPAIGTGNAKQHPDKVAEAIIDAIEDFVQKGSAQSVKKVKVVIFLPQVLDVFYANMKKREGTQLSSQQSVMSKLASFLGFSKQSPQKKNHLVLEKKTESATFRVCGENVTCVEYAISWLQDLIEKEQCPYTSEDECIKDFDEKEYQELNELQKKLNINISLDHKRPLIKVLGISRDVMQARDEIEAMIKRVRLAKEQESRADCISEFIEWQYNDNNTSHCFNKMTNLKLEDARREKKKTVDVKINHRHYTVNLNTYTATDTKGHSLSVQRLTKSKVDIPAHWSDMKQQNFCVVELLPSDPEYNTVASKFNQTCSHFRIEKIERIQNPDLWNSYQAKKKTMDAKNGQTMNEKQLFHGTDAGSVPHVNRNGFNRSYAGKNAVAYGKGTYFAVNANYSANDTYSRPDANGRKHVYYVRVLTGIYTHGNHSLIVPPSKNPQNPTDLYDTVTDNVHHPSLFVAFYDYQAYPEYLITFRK

For `O=c1[nH]c(-c2ccc(N3CCCCC3)cc2)nc2ccccc12` [Compound 30], the IC50 at TNKS2 was 15 nM; against ARTD2/PARP2, 8.6 µM; on ARTD4/PARP4, 12 µM; against ARTD8/PARP14 it was more than 10 µM; against ARTD15/PARP16, more than 10 µM. Further, the inhibition at 1 µM on CDK9 turned out to be 12 ± 4%; at p38α it was 3 ± 1%; on human CK2α-1 it was 1 ± 1%. The results for the inhibition at 10 µM at CDK9, at p38α and on human CK2α-1 were 31 ± 4%, 3 ± 3% and 1 ± 1%, respectively.
Take `CCN(CC)c1ccc(-c2nc3ccccc3c(=O)[nH]2)cc1` [Compound 32]: the IC50 against TNKS2 is 10 nM; on ARTD2/PARP2, 24 µM; on ARTD4/PARP4, 5.5 µM; on ARTD8/PARP14, more than 10 µM; against ARTD15/PARP16, more than 10 µM. For the same compound, the results for the inhibition at 1 µM at CDK9, at p38α and on human CK2α-1 were 13 ± 4%, 1 ± 1% and 2 ± 1%, respectively. Besides, the inhibition at 10 µM is 16 ± 3% at CDK9, 20 ± 2% on p38α and 2 ± 1% at human CK2α-1.

A word on the IC50: it is the concentration that inhibits the measured activity by half. A higher IC50 goes with a need for much substance.
